Reference: patent publication US20170233413A1, “SUBSTITUTED ANNULATED PYRIMIDINES AND USE THEREOF” (Bayer Pharma Aktiengesellschaft, priority 2014, published 2017)

Assays:
[1] = target: T1, human phosphodiesterase 5 (PDE 5) (Homo sapiens, UniProt O76074); assay: Inhibition of human phosphodiesterase 5 (PDE 5); format: biochemical; conditions: PDE 5 preparation from human platelets; in some cases means of individual determinations
T1 construct: PDE 5 preparations are obtained from human platelets by disruption; from tissue; host or cells: human platelets
Procedure, shortened: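 Enzyme partially purified from human platelets by Mono Q ion exchange, diluted so that under 70% of substrate converts. [8-3H]cGMP at 0.025 μCi per well in Tris pH 7.5 with MgCl2/EDTA, 60 min at room temperature, yttrium SPA bead read-out. Final compound concentrations 4–0.0018 μM; IC50 from concentration–inhibition plot.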

[2] = target: T2, recombinant guanylate cyclase reporter cell line (Rattus norvegicus, UniProt P19686+P20595); assay: Effect on a recombinant guanylate cyclase reporter cell line; format: cell-based; conditions: MEC = minimum effective concentration; in some cases means of individual determinations
T2 construct: expressed in transfected cells
T2 sequence (P19686 1-690): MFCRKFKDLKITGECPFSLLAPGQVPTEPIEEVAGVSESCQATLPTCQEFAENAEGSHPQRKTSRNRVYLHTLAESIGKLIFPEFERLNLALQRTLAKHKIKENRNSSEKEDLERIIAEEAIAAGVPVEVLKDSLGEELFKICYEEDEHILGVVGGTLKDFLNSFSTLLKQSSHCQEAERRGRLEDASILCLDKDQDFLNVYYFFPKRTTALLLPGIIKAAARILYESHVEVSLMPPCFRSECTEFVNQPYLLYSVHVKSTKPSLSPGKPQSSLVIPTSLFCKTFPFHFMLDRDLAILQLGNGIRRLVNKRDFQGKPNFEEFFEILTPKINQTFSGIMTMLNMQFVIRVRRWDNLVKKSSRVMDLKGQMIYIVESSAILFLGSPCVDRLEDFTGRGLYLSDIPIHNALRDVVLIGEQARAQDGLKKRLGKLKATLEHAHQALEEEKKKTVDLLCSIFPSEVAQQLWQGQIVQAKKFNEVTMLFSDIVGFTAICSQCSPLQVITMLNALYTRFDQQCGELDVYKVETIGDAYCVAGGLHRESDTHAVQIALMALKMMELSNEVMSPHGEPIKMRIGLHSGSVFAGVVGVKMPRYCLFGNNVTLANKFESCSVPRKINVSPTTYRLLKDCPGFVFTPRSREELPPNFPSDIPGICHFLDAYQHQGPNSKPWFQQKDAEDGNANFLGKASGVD
T2 sequence (P20595 1-619): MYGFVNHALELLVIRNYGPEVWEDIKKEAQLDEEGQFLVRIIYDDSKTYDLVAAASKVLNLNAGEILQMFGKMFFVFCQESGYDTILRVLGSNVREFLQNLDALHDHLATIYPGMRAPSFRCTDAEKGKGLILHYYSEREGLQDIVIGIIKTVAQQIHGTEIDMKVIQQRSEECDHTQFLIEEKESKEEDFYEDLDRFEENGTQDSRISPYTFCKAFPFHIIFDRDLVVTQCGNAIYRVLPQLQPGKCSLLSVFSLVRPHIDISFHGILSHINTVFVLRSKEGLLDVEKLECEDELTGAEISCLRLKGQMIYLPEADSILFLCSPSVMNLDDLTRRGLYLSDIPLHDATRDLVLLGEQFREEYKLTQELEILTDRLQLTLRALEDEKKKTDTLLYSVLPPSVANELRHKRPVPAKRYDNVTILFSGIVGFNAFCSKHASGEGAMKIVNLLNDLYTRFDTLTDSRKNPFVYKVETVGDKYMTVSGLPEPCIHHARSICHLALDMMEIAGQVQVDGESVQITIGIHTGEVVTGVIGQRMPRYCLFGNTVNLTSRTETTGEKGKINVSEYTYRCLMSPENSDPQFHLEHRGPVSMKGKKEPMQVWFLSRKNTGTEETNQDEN
Procedure, shortened: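 Cellular activity measured in a recombinant rat soluble guanylate cyclase reporter cell line. Values are minimum effective concentration (MEC), some given as means of individual determinations.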

| Structure (SMILES) | IC50 [1] [nM] | MEC [2] [µM] |
| --- | --- | --- |
| CC1(C)C(=O)Nc2nc(-c3nn(Cc4ccccc4F)c4ncc(F)cc34)nc(C(=O)NCC(F)(F)F)c21 [Example 50] | 19 | 0.1 |
| CC1(C)C(=O)Nc2nc(-c3nn(Cc4ccccc4F)c4cc(Cl)ccc34)nc(C(=O)NCC3CC3)c21 [Example 42, 2-[6-Chloro-1-(2-fluorobenzyl)-1H-indazol-3-yl]-N-(cyclopropylmethyl)-5,5-dimethyl-6-oxo-6,7-dihydro-5H-pyrrolo[2,3-d]pyrimidine-4-carboxamide] | 74 | 0.3 |
| CC1(C)C(=O)Nc2nc(-c3nn(Cc4ccccc4F)c4ncc(F)cc34)nc(C(=O)NCC3(O)CC3)c21 [Example 27, 2-[5-Fluoro-1-(2-fluorobenzyl)-1H-pyrazolo[3,4-b]pyridin-3-yl]-N-[(1-hydroxycyclopropyl)methyl]-5,5-dimethyl-6-oxo-6,7-dihydro-5H-pyrrolo[2,3-d]pyrimidine-4-carboxamide] | 51 | 0.1 |
| CC1(C)C(=O)Nc2nc(-c3nn(Cc4ncccc4F)c4ncc(F)cc34)nc(C(=O)NC3CC3)c21 [Example 32] | 12 | 1 |
| CC1(C)C(=O)Nc2nc(-c3nn(Cc4ccccc4F)c4ncccc34)nc(C(=O)N3CCC(O)C3)c21 (stereo not drawn) [Example 26] | 930 | 0.3 |
| Cc1nc2c(cc1F)c(-c1nc3c(c(C(N)=O)n1)C(C)(C(F)(F)F)C(=O)N3)nn2Cc1c(F)ccc(F)c1F (single isomer, unassigned; ent-2) [Example 17, ent-2-[5-Fluoro-6-methyl-1-(2,3,6-trifluorobenzyl)-1H-pyrazolo[3,4-b]pyridin-3-yl]-5-methyl-6-oxo-5-(trifluoromethyl)-6,7-dihydro-5H-pyrrolo[2,3-d]pyrimidine-4-carboxamide (enantiomer B)] | 280 | 0.03 |
| Cc1nc2c(cc1F)c(-c1nc3c(c(C(N)=O)n1)C(C)(C(F)(F)F)C(=O)N3)nn2Cc1cccc(F)c1F (single isomer, unassigned; ent-2) [Example 11, ent-2-[1-(2,3-Difluorobenzyl)-5-fluoro-6-methyl-1H-pyrazolo[3,4-b]pyridin-3-yl]-5-methyl-6-oxo-5-(trifluoromethyl)-6,7-dihydro-5H-pyrrolo[2,3-d]pyrimidine-4-carboxamide (enantiomer B)] | 91 | 0.1 |
| Cc1nc2c(cc1F)c(-c1nc3c(c(C(=O)NC4CC4)n1)C(C)(C)C(=O)N3)nn2Cc1cccc(F)c1F [Example 37] | 4 | 0.1 |
| Cc1nc2c(cc1F)c(-c1nc3c(c(C(N)=O)n1)C(C)(C(F)(F)F)C(=O)N3)nn2Cc1c(F)ccc(F)c1F (single isomer, unassigned; ent-2) [Example 16, ent-2-[5-Fluoro-6-methyl-1-(2,3,6-trifluorobenzyl)-1H-pyrazolo[3,4-b]pyridin-3-yl]-5-methyl-6-oxo-5-(trifluoromethyl)-6,7-dihydro-5H-pyrrolo[2,3-d]pyrimidine-4-carboxamide (enantiomer A)] | 170 | 0.17 |

Continued, values first:

| IC50 [1] [nM] | MEC [2] [µM] | Structure (SMILES) |
| --- | --- | --- |
| 87 | 0.1 | CC1(C)C(=O)Nc2nc(-c3nn(Cc4ccccc4F)c4ncc(F)cc34)nc(C(=O)NCCC(F)(F)F)c21 [Example 51] |
| 30 | 0.1 | CONC(=O)c1nc(-c2nn(Cc3ccccc3F)c3ncccc23)nc2c1C(C)(C)C(=O)N2 [Example 79, 2-[1-(2-fluorobenzyl)-1H-pyrazolo[3,4-b]pyridin-3-yl]-N-methoxy-5,5-dimethyl-6-oxo-6,7-dihydro-5H-pyrrolo[2,3-d]pyrimidine-4-carboxamide] |
| 86 | 1 | Cc1nc2c(cc1F)c(-c1nc3c(c(C(=O)NCC(C)(N)CC(F)F)n1)C(C)(C)C(=O)N3)nn2Cc1cccc(F)c1F (single isomer, unassigned) [Example 58] |
| 11 | 0.1 | CC(NC(=O)c1nc(-c2nn(Cc3ccccc3F)c3ncccc23)nc2c1C(C)(C)C(=O)N2)C1CC1 (racemic) [Example 104, rac-N-(1-cyclopropylethyl)-2-[1-(2-fluorobenzyl)-1H-pyrazolo[3,4-b]pyridin-3-yl]-5,5-dimethyl-6-oxo-6,7-dihydro-5H-pyrrolo[2,3-d]pyrimidine-4-carboxamide] |
| 91 | 1 | CCC(CC)CNC(=O)c1nc(-c2nn(Cc3ccccc3F)c3ncccc23)nc2c1C(C)(C)C(=O)N2 [Example 59, N-(2-Ethylbutyl)-2-[1-(2-fluorobenzyl)-1H-pyrazolo[3,4-b]pyridin-3-yl]-5,5-dimethyl-6-oxo-6,7-dihydro-5H-pyrrolo[2,3-d]pyrimidine-4-carboxamide] |
| 6 | 0.3 | CC1(C)C(=O)Nc2nc(-c3nn(Cc4ccccc4F)c4ncccc34)nc(C(=O)NC3CCCC3)c21 [Example 126, N-cyclopentyl-2-[1-(2-fluorobenzyl)-1H-pyrazolo[3,4-b]pyridin-3-yl]-5,5-dimethyl-6-oxo-6,7-dihydro-5H-pyrrolo[2,3-d]pyrimidine-4-carboxamide] |
| 10 | 0.1 | CCNC(=O)c1nc(-c2nn(Cc3ccccc3F)c3ncccc23)nc2c1C(C)(C)C(=O)N2 [Example 129, N-ethyl-2-[1-(2-fluorobenzyl)-1H-pyrazolo[3,4-b]pyridin-3-yl]-5,5-dimethyl-6-oxo-6,7-dihydro-5H-pyrrolo[2,3-d]pyrimidine-4-carboxamide] |
| 44 | 0.1 | Cc1cccnc1NC(=O)c1nc(-c2nn(Cc3ccccc3F)c3ncccc23)nc2c1C(C)(C)C(=O)N2 [Example 113, 2-[1-(2-fluorobenzyl)-1H-pyrazolo[3,4-b]pyridin-3-yl]-5,5-dimethyl-N-(3-methylpyridin-2-yl)-6-oxo-6,7-dihydro-5H-pyrrolo[2,3-d]pyrimidine-4-carboxamide] |
| 33 | 0.3 | CC(C)CCNC(=O)c1nc(-c2nn(Cc3ccccc3F)c3ncccc23)nc2c1C(C)(C)C(=O)N2 [Example 132, 2-[1-(2-fluorobenzyl)-1H-pyrazolo[3,4-b]pyridin-3-yl]-5,5-dimethyl-N-(3-methylbutyl)-6-oxo-6,7-dihydro-5H-pyrrolo[2,3-d]pyrimidine-4-carboxamide] |
| 48 | 1 | CC1(C)C(=O)Nc2nc(-c3nn(Cc4ccccc4F)c4ncccc34)nc(C(=O)NCCC(N)=O)c21 [Example 95, N-(3-amino-3-oxopropyl)-2-[1-(2-fluorobenzyl)-1H-pyrazolo[3,4-b]pyridin-3-yl]-5,5-dimethyl-6-oxo-6,7-dihydro-5H-pyrrolo[2,3-d]pyrimidine-4-carboxamide] |
| 16 | 0.1 | COCCNC(=O)c1nc(-c2nn(Cc3ccccc3F)c3ncccc23)nc2c1C(C)(C)C(=O)N2 [Example 127, 2-[1-(2-fluorobenzyl)-1H-pyrazolo[3,4-b]pyridin-3-yl]-N-(2-methoxyethyl)-5,5-dimethyl-6-oxo-6,7-dihydro-5H-pyrrolo[2,3-d]pyrimidine-4-carboxamide] |
| 2.6 | 0.3 | Cn1nccc1NC(=O)c1nc(-c2nn(Cc3ccccc3F)c3ncccc23)nc2c1C(C)(C)C(=O)N2 [Example 67, 2-[1-(2-fluorobenzyl)-1H-pyrazolo[3,4-b]pyridin-3-yl]-5,5-dimethyl-N-(1-methyl-1H-pyrazol-5-yl)-6-oxo-6,7-dihydro-5H-pyrrolo[2,3-d]pyrimidine-4-carboxamide] |
